# Legend:
# [1] = test system: H9 (acute lymphoblastic leukemia, ALL); experiment: MTT leukemia cell growth inhibition, 72 h; assay type: cell-based, human; conditions: Homo sapiens, H9, 72 h; for IC50: read-out: IC50; for IC90: read-out: IC90
# Description: (§1) Leukemia cell lines: K562/adr (drug-resistant, chronic myeloid leukemia, CML), NB4 (acute promyelocytic leukemia, AML), Kasumi-1 (acute myeloid leukemia M2 type, AML-M2), Jurkat (acute lymphoblastic leukemia, ALL), all of which are donated by Cancer Research Institute of Zhejiang University, China; and H9 (acute lymphoblastic leukemia, ALL), which is purchased from China Center for Type Culture Collection.
# (§2) Obtaining 6000 well-growing leukemia cells and inoculating them into wells of a 96-well cell culture plate. The culture medium is the 1640 cell culture medium containing 10% fetal bovine serum. After adding the homoharringtonine derivatives of different concentrations and mixing uniformly, placing the plate in a carbon dioxide cell incubator (5% CO2) at 37° C. and incubating for 72 hours. Then the viable cell concentration is determined by the MTT method. In this experiment, the cell viability in control group (not treated with any compound) is set as 100%.
# [2] = test system: Jurkat (acute lymphoblastic leukemia, ALL); experiment: MTT leukemia cell growth inhibition, 72 h; assay type: cell-based, human; conditions: Homo sapiens; for IC50: read-out: IC50; for IC90: read-out: IC90
# Description: as §1, §2
# [3] = test system: K562/adr (drug-resistant, chronic myeloid leukemia, CML); experiment: MTT leukemia cell growth inhibition, 72 h; assay type: cell-based, human; conditions: Homo sapiens, K562/Adr; for IC50: read-out: IC50; for IC90: read-out: IC90
# Description: as §1, §2
# [4] = test system: Kasumi-1 (acute myeloid leukemia M2 type, AML-M2); experiment: MTT leukemia cell growth inhibition, 72 h; assay type: cell-based, human; conditions: Homo sapiens, Kasumi-1, 72 h; for IC50: read-out: IC50; for IC90: read-out: IC90
# Description: as §1, §2
# [5] = test system: NB4 (acute promyelocytic leukemia, AML); experiment: MTT leukemia cell growth inhibition, 72 h; assay type: cell-based, human; conditions: Homo sapiens, NB4, 72 h; for IC50: read-out: IC50; for IC90: read-out: IC90
# Description: as §1, §2
# [6] = test system: RPMI8226 (multiple myeloma); experiment: MTT multiple myeloma cell growth inhibition, 72 h; assay type: cell-based, human; conditions: Homo sapiens, RPMI-8226, RPMI8226, 72 h; for IC50: read-out: IC50; for IC90: read-out: IC90
# Procedure: Multiple myeloma and lymphoma cell lines: RPMI8226 (multiple myeloma), purchased from Fuxiang Bio-tech Co. Ltd., Shanghai, China.
# as §2, with “method.” for “method. In this experiment, the cell viability in control group (not treated with any compound) is set as 100%.”
# A549 (human lung cancer) = experiment: MTT solid tumor cell growth inhibition, 72 h; assay type: cell-based; conditions: Homo sapiens, A549, 72 h; for IC50: read-out: IC50; for IC90: read-out: IC90
# Procedure: (§3) Human solid tumor cell lines: Hep-2 ([…]), A549 (human lung cancer), CaES-17 (esophageal cancer cell), PC-3 (prostate cancer), CNE (nasopharyngeal carcinoma cell), and SK-OV-3 (ovarian cancer cell), all of which are purchased from China Center For Type Culture Collection; RKO (human colon adenocarcinoma cell), MGC 803 (human gastric cancer cell), MG63 (osteosarcoma) and U87 MG (malignant glioma cell), all of which are purchased from Fuxiang Bio-tech Co. Ltd., Shanghai, China; PANC-1 (pancreatic cancer), Huh7 (human liver cancer cell), Becap37 (human breast cancer cell), and Hela (human cervical cancer cell), all of which are donated by Cancer Research Institute of Zhejiang University, China.
# (§4) Obtaining 4000 well-growing human solid tumor cells and inoculating them into wells of a 96-well cell culture plate. The culture medium is DMEM High Glucose cell culture medium containing 10% fetal bovine serum. The plate is placed in a carbon dioxide cell incubator (5% CO2) at 37° C. and incubating for 24 hours. After adding the homoharringtonine derivatives of different concentration and mixing uniformly, the plate is placed in a carbon dioxide cell incubator (5% CO2) at 37° C. and incubating for 72 hours. Then the viable cell concentration is determined by the MTT method and the cell viability (%) after drug treatment is calculated. In this experiment, the cell viability of control group (not treated with any compound) is set as 100%.
# [7] = test system: Becap37 (human breast cancer cell); experiment: MTT solid tumor cell growth inhibition, 72 h; assay type: cell-based; conditions: Homo sapiens, Becap37, 72 h; for IC50: read-out: IC50; for IC90: read-out: IC90
# Procedure: as §3, §4
# [8] = test system: Hela (human cervical cancer cell); experiment: MTT solid tumor cell growth inhibition, 72 h; assay type: cell-based; conditions: Homo sapiens, HeLa; for IC50: read-out: IC50; for IC90: read-out: IC90
# Procedure: as §3, §4
# [9] = test system: Hep-2 (human hepatocellular carcinoma); experiment: MTT solid tumor cell growth inhibition, 72 h; assay type: cell-based; conditions: Homo sapiens, HEp-2, Hep2, 72 h; for IC50: read-out: IC50; for IC90: read-out: IC90
# Procedure: as §3, §4
# [10] = test system: Huh7 (human liver cancer cell); experiment: MTT solid tumor cell growth inhibition, 72 h; assay type: cell-based; conditions: Homo sapiens, Huh-7, Huh7, 72 h; for IC50: read-out: IC50; for IC90: read-out: IC90
# Procedure: as §3, §4
# [11] = test system: MGC 803 (human gastric cancer cell); experiment: MTT solid tumor cell growth inhibition, 72 h; assay type: cell-based; conditions: Homo sapiens, MGC 803, 72 h; for IC50: read-out: IC50; for IC90: read-out: IC90
# Procedure: as §3, §4
# [12] = test system: RKO (human colon adenocarcinoma cell); experiment: MTT solid tumor cell growth inhibition, 72 h; assay type: cell-based; conditions: Homo sapiens; for IC50: read-out: IC50; for IC90: read-out: IC90
# Procedure: as §3, §4
# [13] = test system: CNE (nasopharyngeal carcinoma cell); experiment: MTT solid tumor cell growth inhibition, 72 h; assay type: cell-based, human; conditions: Homo sapiens; for IC50: read-out: IC50; for IC90: read-out: IC90
# Procedure: as §3, §4
# [14] = test system: CaES-17 (esophageal cancer cell); experiment: MTT solid tumor cell growth inhibition, 72 h; assay type: cell-based, human; conditions: Homo sapiens, CaEs17, CaES-17, 72 h; for IC50: read-out: IC50; for IC90: read-out: IC90
# Procedure: as §3, §4
# MG63 (osteosarcoma) = experiment: MTT solid tumor cell growth inhibition, 72 h; assay type: cell-based, human; conditions: Homo sapiens, MG 63, 72 h; for IC50: read-out: IC50; for IC90: read-out: IC90
# Procedure: as §3, §4
# [15] = test system: PANC-1 (pancreatic cancer); experiment: MTT solid tumor cell growth inhibition, 72 h; assay type: cell-based, human; conditions: Homo sapiens, PANC-1, 72 h; for IC50: read-out: IC50; for IC90: read-out: IC90
# Procedure: as §3, §4
# PC-3 (prostate cancer) = experiment: MTT solid tumor cell growth inhibition, 72 h; assay type: cell-based, human; conditions: Homo sapiens, PC-3, 72 h; for IC50: read-out: IC50; for IC90: read-out: IC90
# Procedure: as §3, §4
# [16] = test system: SK-OV-3 (ovarian cancer cell); experiment: MTT solid tumor cell growth inhibition, 72 h; assay type: cell-based, human; conditions: Homo sapiens, SK-OV-3, 72 h; for IC50: read-out: IC50; for IC90: read-out: IC90
# Procedure: as §3, §4
# [17] = test system: U87 MG (malignant glioma cell); experiment: MTT solid tumor cell growth inhibition, 72 h; assay type: cell-based, human; conditions: Homo sapiens, U-87 MG; for IC50: read-out: IC50; for IC90: read-out: IC90
# Procedure: as §3, §4
# [18] = test system: A549, PANC-1, Becap37, MG63, Huh7, RKO, Hela, CaES-17, CNE, Hep-2, PC-3 and SK-OV-3; experiment: Anti-human solid tumor effect, summary over cell lines; assay type: cell-based; conditions: result in words, summary of Table 2
# Procedure: as §3, §4
smiles,measurement,setting,value
COC1=C[C@]23CCCN2CCc2cc4c(cc2[C@@H]3[C@@H]1OC(=O)[C@@](O)(CCCC(C)(C)O)CC(=O)N1CCN(C(C)C)CC1)OCO4 [BS-HH-034],IC50,[1],0.6 µg/mL
same,IC90,[1],2.7 µg/mL
same,IC50,[2],0.46 µg/mL
same,IC90,[2],16 µg/mL
same,IC50,[3],4.53 µg/mL
same,IC90,[3],16 µg/mL
same,IC50,[4],0.31 µg/mL
same,IC90,[4],1.77 µg/mL
same,IC50,[5],0.48 µg/mL
same,IC90,[5],2.3 µg/mL
same,IC50,[6],0.47 µg/mL
same,IC90,[6],3.72 µg/mL
same,IC50,A549 (human lung cancer),1.74 µg/mL
same,IC90,A549 (human lung cancer),> 16 µg/mL
same,IC50,[7],0.81 µg/mL
same,IC90,[7],> 16 µg/mL
same,IC50,[8],1.97 µg/mL
same,IC90,[8],> 16 µg/mL
same,IC50,[9],1.29 µg/mL
same,IC90,[9],> 16 µg/mL
same,IC50,[10],1.05 µg/mL
same,IC90,[10],> 16 µg/mL
same,IC50,[11],0.81 µg/mL
same,IC90,[11],11.8 µg/mL
same,IC50,[12],0.18 µg/mL
same,IC90,[12],1.25 µg/mL
same,IC50,[13],0.49 µg/mL
same,IC90,[13],16 µg/mL
same,IC50,[14],1.91 µg/mL
same,IC90,[14],16 µg/mL
same,IC50,MG63 (osteosarcoma),0.32 µg/mL
same,IC90,MG63 (osteosarcoma),16 µg/mL
same,IC50,[15],1.94 µg/mL
same,IC90,[15],> 16 µg/mL
same,IC50,PC-3 (prostate cancer),0.91 µg/mL
same,IC90,PC-3 (prostate cancer),> 16 µg/mL
same,IC50,[16],2.81 µg/mL
same,IC90,[16],> 16 µg/mL
same,IC50,[17],0.89 µg/mL
same,IC90,[17],5.74 µg/mL
"COC1=C[C@]23CCCN2CCc2cc4c(cc2[C@@H]3[C@@H]1OC(=O)[C@@](O)(CCCC(C)(C)O)CC(=O)N1CCN(c2ccc(F)cc2)CC1)OCO4 [BS-HH-046, O-3-[(2R)-2,6-dihydroxy-2-(2′-(4-(4-fluorophenyl)piperazinyl)-2′-oxoethyl)-6-methylheptanoyl]cephalotaxine]",IC50,[1],0.5 µg/mL
same,IC90,[1],7.84 µg/mL
same,IC50,[2],0.32 µg/mL
same,IC90,[2],15.2 µg/mL
same,IC50,[3],14.5 µg/mL
same,IC90,[3],> 16 µg/mL
same,IC50,[4],0.26 µg/mL
same,IC90,[4],2.26 µg/mL
same,IC50,[5],0.19 µg/mL
same,IC90,[5],0.5 µg/mL
same,IC50,[6],0.17 µg/mL
same,IC90,[6],0.72 µg/mL
same,IC50,A549 (human lung cancer),0.84 µg/mL
same,IC90,A549 (human lung cancer),> 16 µg/mL
same,IC50,[7],0.4 µg/mL
same,IC90,[7],> 16 µg/mL
same,IC50,[8],1.56 µg/mL
same,IC90,[8],> 16 µg/mL
same,IC50,[9],0.27 µg/mL
same,IC90,[9],> 16 µg/mL
same,IC50,[10],1.37 µg/mL
same,IC90,[10],> 16 µg/mL
same,IC50,[11],0.39 µg/mL
same,IC90,[11],8.28 µg/mL
same,IC50,[12],0.054 µg/mL
same,IC90,[12],0.93 µg/mL
same,IC50,[13],0.3 µg/mL
same,IC90,[13],16 µg/mL
same,IC50,[14],0.98 µg/mL
same,IC90,[14],16 µg/mL
same,IC50,MG63 (osteosarcoma),0.23 µg/mL
same,IC90,MG63 (osteosarcoma),> 16 µg/mL
same,IC50,[15],0.45 µg/mL
same,IC90,[15],> 16 µg/mL
same,IC50,PC-3 (prostate cancer),0.78 µg/mL
same,IC90,PC-3 (prostate cancer),> 16 µg/mL
same,IC50,[16],1.89 µg/mL
same,IC90,[16],> 16 µg/mL
same,IC50,[17],0.25 µg/mL
same,IC90,[17],> 16 µg/mL
same,"anti-A549, anti-PANC-1, anti-Becap37, anti-MG63, anti-Huh7, anti-RKO, anti-Hela, anti-CaES-17, anti-CNE, anti-Hep-2, anti-PC-3 and anti-SK-OV-3 effect",[18],strong
